Source: PubChem BioAssay AID602427 (Sanford-Burnham Center for Chemical Genomics, 2012)
Activity calls are given as the source filed them.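 How the source made its calls: active means EC50 at or below 20 micromolar; inactive means the rest.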

Molecular target: Neurotensin receptor type 1 (Homo sapiens) (UniProt P30989)
Assay: NTSR1 activation via enzyme-fragment complementation – cell-based, luminescence, CHO-K1 NTSR1 PathHunter, orthogonal assay for NTR1 agonist project, SAR follow-up (AID 602427);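 further: agonist potency for NTR1 activation where higher luminescence means more arrestin recruitment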
Conditions: CHO-K1 NTSR1 PathHunter beta-arrestin

Sequence of Neurotensin receptor type 1 (Homo sapiens) (P30989 whole entry, looked up, the tested form may be a part): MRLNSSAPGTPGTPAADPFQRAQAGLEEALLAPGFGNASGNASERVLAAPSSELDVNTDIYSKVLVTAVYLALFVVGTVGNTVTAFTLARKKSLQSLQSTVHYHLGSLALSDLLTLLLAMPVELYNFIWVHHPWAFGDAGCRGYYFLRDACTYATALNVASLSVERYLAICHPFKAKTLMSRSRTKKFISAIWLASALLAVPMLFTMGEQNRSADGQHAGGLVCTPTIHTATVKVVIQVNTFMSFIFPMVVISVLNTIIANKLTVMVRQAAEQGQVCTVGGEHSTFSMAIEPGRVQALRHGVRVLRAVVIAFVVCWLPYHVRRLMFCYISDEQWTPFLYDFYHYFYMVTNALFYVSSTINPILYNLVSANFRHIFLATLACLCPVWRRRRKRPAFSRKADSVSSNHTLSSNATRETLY

Structure (SMILES)	EC50
COc1cccc(OC)c1-c1cc(C(=O)N[C@@H](CC(C)C)C(=O)OC(C)(C)C)nn1-c1ccnc2cc(Cl)ccc12	> 33 µM (inactive)
CC(=O)c1ccc(N2CCN(c3ncnc4c3cnn4-c3ccc(C)cc3C)CC2)cc1	> 33 µM (inactive)
Cc1cccc(-n2ncc3c(N4CCN(c5ccccc5)CC4)ncnc32)c1	> 33 µM (inactive)
COc1cc2c(=O)c(C(=O)c3ccc(F)cc3)cn(CC3CC3)c2cc1OC	> 33 µM (inactive)
COc1ccc(C(=O)c2cn(Cc3ccc(N(C)C)cc3)c3ccccc3c2=O)cc1	> 33 µM (inactive)
CN(C)S(=O)(=O)c1ccc(-c2csc(N/N=C/c3cccs3)n2)cc1	> 33 µM (inactive)
COc1cc2c3nnc(-c4ccc(F)cc4)c-3cn(Cc3cccc(C)c3)c2cc1OC	> 33 µM (inactive)
Cc1ccc(-c2nnc3c4cc5c(cc4n(Cc4ccccc4)cc2-3)OCO5)cc1	> 33 µM (inactive)
COc1cc2c3nnc(-c4ccc(C)c(C)c4)c-3cn(Cc3ccc(F)cc3)c2cc1OC	> 33 µM (inactive)
Fc1ccc(Cn2cc3c(-c4ccc(F)cc4)nnc-3c3cc4c(cc32)OCO4)cc1	> 33 µM (inactive)
Cc1cccc(C)c1-c1nc(C(=O)N[C@@H](CC(C)C)C(=O)O)cn1-c1ccnc2cc(Cl)ccc12	> 33 µM (inactive)
Cc1ccc(-n2ncc3c(N4CCN(c5ccccc5)CC4)ncnc32)cc1	> 33 µM (inactive)
COc1cc2c3nnc(-c4ccc(F)cc4)c-3cn(Cc3cccc(N(C)C)c3)c2cc1OC	> 33 µM (inactive)
COc1ccc(Cn2cc(C(=O)c3ccc(OC)cc3)c(=O)c3ccccc32)cc1	> 33 µM (inactive)
COc1cc2c3nnc(-c4ccc(F)cc4)c-3cn(Cc3ccc(N(C)C)cc3)c2cc1OC	> 33 µM (inactive)
COc1ccc(-c2nnc3c4cc(OC)c(OC)cc4n(Cc4ccc(C)cc4)cc2-3)cc1	15.5 µM
COc1cc2ncnc(N3CCN(c4ccccc4OC)CC3)c2cc1OC	> 33 µM (inactive)
COc1cc2c3nnc(-c4ccc(Cl)cc4)c-3cn(Cc3ccc(F)cc3)c2cc1OC	> 33 µM (inactive)
Cc1ccc(-n2ncc3c(N4CCN(c5ccccc5F)CC4)ncnc32)c(C)c1	> 33 µM (inactive)
COc1cc2nc(C3CCC3)nc(N3CCN(c4ccccc4F)CC3)c2cc1OC	> 33 µM (inactive)
COc1cc2c3nnc(-c4ccc(F)cc4)c-3cn(Cc3ccccc3N(C)C)c2cc1OC	> 33 µM (inactive)
COc1cc2c3nnc(-c4ccc(F)cc4)c-3cn(Cc3ccccc3)c2cc1OC	inactive
COc1cccc(N2CCN(c3ncnc4c3cnn4-c3ccc(C)cc3C)CC2)c1	> 33 µM (inactive)
COc1ccc(-c2nnc3c4ccccc4n(Cc4ccc(OC(F)(F)F)cc4)cc2-3)cc1	> 33 µM (inactive)
CCn1cc(C(=O)c2ccc(F)cc2)c(=O)c2cc(OC)c(OC)cc21	> 33 µM (inactive)
CN(C)S(=O)(=O)c1ccc(-c2csc(N/N=C/c3ccc(C(C)(C)C)cc3)n2)cc1	> 33 µM (inactive)

The remaining lines, values ahead:

EC50	Structure (SMILES)
> 33 µM (inactive)	COc1ccc2c(c1)c1nnc(-c3ccc(F)cc3)c-1cn2Cc1ccccc1
> 33 µM (inactive)	COc1cccc2c(C(=O)N[C@@H](CC(C)C)C(=O)O)cn(-c3ccnc4cc(Cl)ccc34)c12
> 33 µM (inactive)	CCn1cc(C(=O)c2ccc(OC)cc2)c(=O)c2ccccc21
> 33 µM (inactive)	N=c1c2ccccc2nc(SCc2ccc(Cl)cc2)n1Cc1ccccc1
> 33 µM (inactive)	COc1cccc2c(C(=O)N[C@@H](CC(C)C)C(=O)O)cn(-c3ccnc4ccccc34)c12
> 33 µM (inactive)	O=C(O)c1nc(-c2ccnc3ccccc23)c(-c2ccccc2)s1
> 33 µM (inactive)	COc1ccc(C(=O)c2cn(Cc3ccc(Cl)cc3)c3ccccc3c2=O)cc1
> 33 µM (inactive)	COc1cccc(OC)c1-c1cc(C(=O)O)nn1-c1ccnc2cc(Cl)ccc12
inactive	CC(C)C[C@H](NC(=O)c1cn(-c2ccnc3ccccc23)c2c(OCc3ccccc3)cccc12)C(=O)O
> 33 µM (inactive)	COc1ccc(-c2nnc3c4ccccc4n(Cc4ccncc4)cc2-3)cc1
> 33 µM (inactive)	COc1ccc2c(c1)c(=O)c(C(=O)c1ccc(F)cc1)cn2Cc1ccccc1
> 33 µM (inactive)	COc1ccccc1-c1nc(C(=O)N[C@@H](CC(C)C)C(=O)O)cn1-c1ccnc2ccccc12
> 33 µM (inactive)	c1ccc(N2CCN(c3ncnc4c3cnn4-c3ccccc3)CC2)cc1
